In patent US9017689B2, “Peptides for vaccine against birch allergy” (Circassia Limited, priority 2010, dated 2015):
Like-named read-outs stand apart in the source and are kept apart here. Ends that are not written are not given here.

Experiment: Solubility screening in trehalose matrices pH 2.65 to 7.03;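 further: test items are peptides, each checked for solubility in every trehalose matrix, the matrices made up in distilled deionised water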
Assay type: physicochemical
Details: for solubility: read-out: Solubility [mg per ml]
[1] = 2 mM HCl and 260 mM trehalose dihydrate, pH 2.65
[2] = 10 mM potassium dihydrogen phosphate and 260 mM trehalose dihydrate, pH 6.03
[3] = 10 mM potassium dihydrogen phosphate and 260 mM trehalose dihydrate, pH 7.03
[4] = 10 mM sodium citrate and 260 mM trehalose dihydrate, pH 3.01
[5] = 10 mM sodium citrate and 260 mM trehalose dihydrate, pH 3.99
[6] = 10 mM sodium citrate and 260 mM trehalose dihydrate, pH 5.02
[7] = aqueous buffer, 10 mM potassium dihydrogen phosphate and 260 mM trehalose dihydrate, pH 6.03
[8] = aqueous buffer, 10 mM potassium dihydrogen phosphate and 260 mM trehalose dihydrate, pH 7.03
[9] = aqueous buffer, 10 mM sodium citrate and 260 mM trehalose dihydrate, pH 3.01
[10] = aqueous buffer, 10 mM sodium citrate and 260 mM trehalose dihydrate, pH 3.99
[11] = aqueous buffer, 10 mM sodium citrate and 260 mM trehalose dihydrate, pH 5.02
[12] = water, 2 mM HCl and 260 mM trehalose dihydrate, pH 2.65
[13] = 10 mM sodium citrate and 260 mM trehalose dihydrate, pH 6.01
[14] = aqueous buffer, 10 mM sodium citrate and 260 mM trehalose dihydrate, pH 6.01

| Sequence | Comments (solubility on preparation) [1] | Solubility [mg per ml 'as is'] [1] [mg per ml ‘as is’] | Solubility [μmol per ml] [1] [μmol per ml] | Solubility after 24 Hours [1] | Commute (solubility on preparation) [2] | Solubility [mg per ml 'as is'] [2] [mg per ml ‘as is’] | Solubility [μmol per ml] [2] [μmol per ml] | Solubility after 24 Hours [2] | Comments (solubility on preparation) [3] | Solubility [mg per ml 'as is'] [3] [mg per ml ‘as is’] | Solubility [μmol per ml] [3] [μmol per ml] | Solubility after 24 Hours [3] | Comments (solubility on preparation) [4] | Solubility [mg per ml 'as is'] [4] [mg per ml ‘as is’] | Solubility [μmol per ml] [4] [μmol per ml] | Solubility after 24 Hours [4] | Comments (solubility on preparation) [5] | Solubility [mg per ml 'as is'] [5] [mg per ml ‘as is’] | Solubility [μmol per ml] [5] [μmol per ml] | Solubility after 24 Hours [5] | other results |
| --- | --- | --- | --- | --- | --- | --- | --- | --- | --- | --- | --- | --- | --- | --- | --- | --- | --- | --- | --- | --- | --- |
| KEMGETLLRAVESYLLAHS [Bir09B] | Completely dissolved | 12.20 | 4.942 | Completely dissolved | Completely dissolved in | 0.36 | 0.147 | Precipitated out, | Completely dissolved | 21.70 | 8.790 | Completely dissolved | Completely dissolved | 11.62 | 4.707 | Completely dissolved | Completely dissolved | 11.40 | 4.618 | Completely dissolved | Comments (solubility on preparation) [6]: Completely dissolved; Solubility [mg per ml 'as is'] [6]: 12.75 mg per ml ‘as is’; Solubility [μmol per ml] [6]: 5.165 μmol per ml; Solubility after 24 Hours [6]: Completely dissolved; solubility [7]: ≥ 0.315 mg/mL; solubility [8]: ≥ 18.9 mg/mL; solubility [9]: ≥ 10.1 mg/mL; solubility [10]: ≥ 9.92 mg/mL; solubility [11]: ≥ 11.1 mg/mL; solubility [12]: ≥ 10.6 mg/mL |
| AERERIFKRFDANGEGK [Bir16A] | Completely dissolved | 24.86 | 10.652 | Completely dissolved | Completely dissolved | 21.54 | 9.229 | Completely dissolved | Completely dissolved | 21.98 | 9.418 | Completely dissolved | Completely dissolved | 7.17 | 3.074 | Completely dissolved | Completely dissolved | 7.49 | 3.208 | Completely dissolved | Comments (solubility on preparation) [6]: Completely dissolved; Solubility [mg per ml 'as is'] [6]: 23.16 mg per ml ‘as is’; Solubility [μmol per ml] [6]: 9.923 μmol per ml; Solubility after 24 Hours [6]: Completely dissolved; Comments (solubility on preparation) [13]: Completely dissolved; Solubility [mg per ml 'as is'] [13]: 25.86 mg per ml ‘as is’; Solubility [μmol per ml] [13]: 11.080 μmol per ml; Solubility after 24 Hours [13]: Completely dissolved; solubility [7]: ≥ 18.7 mg/mL; solubility [8]: ≥ 19.1 mg/mL; solubility [9]: ≥ 6.22 mg/mL; solubility [10]: ≥ 6.49 mg/mL; solubility [11]: ≥ 20.1 mg/mL; solubility [14]: ≥ 22.4 mg/mL; solubility [12]: ≥ 21.6 mg/mL |
| PAARMFKAFILEGDKLVPK [Bir02J] | Completely dissolved | 23.60 | 9.069 | Completely dissolved | Completely dissolved | 11.12 | 4.273 | Completely dissolved | Completely dissolved | 12.31 | 4.730 | Completely dissolved | Completely dissolved in | 0.38 | 0.147 | Precipitated out, | Completely dissolved in | 0.39 | 0.148 | Precipitated out, | Solubility [mg per ml] [4]: 0.314 mg per ml; Comments (solubility on preparation) [6]: Completely dissolved in; Solubility [mg per ml 'as is'] [6]: 0.34 mg per ml ‘as is’; Solubility [μmol per ml] [6]: 0.132 μmol per ml; Solubility after 24 Hours [6]: Precipitated out,; Comments (solubility on preparation) [13]: Completely dissolved in; Solubility [mg per ml 'as is'] [13]: 0.39 mg per ml ‘as is’; Solubility [μmol per ml] [13]: 0.150 μmol per ml; Solubility after 24 Hours [13]: Precipitated out,; solubility [7]: ≥ 9.11 mg/mL; solubility [8]: ≥ 10.1 mg/mL; solubility [10]: ≥ 0.315 mg/mL; solubility [11]: ≥ 0.281 mg/mL; solubility [14]: ≥ 0.32 mg/mL; solubility [12]: ≥ 19.3 mg/mL |
| FNYETETTSVIPAARK [BIR1I] | Completely dissolved | 19.50 | 9.222 | Completely dissolved | Completely dissolved | 22.14 | 10.470 | Completely dissolved | Completely dissolved | 20.78 | 9.827 | Completely dissolved | Completely dissolved | 1.65 | 0.779 | Completely dissolved | Completely dissolved | 2.28 | 1.078 | Completely dissolved | Comments (solubility on preparation) [6]: Completely dissolved; Solubility [mg per ml 'as is'] [6]: 2.30 mg per ml ‘as is’; Solubility [μmol per ml] [6]: 1.089 μmol per ml; Solubility after 24 Hours [6]: Completely dissolved; Comments (solubility on preparation) [13]: Completely dissolved; Solubility [mg per ml 'as is'] [13]: 7.45 mg per ml ‘as is’; Solubility [μmol per ml] [13]: 3.522 μmol per ml; Solubility after 24 Hours [13]: Completely dissolved; solubility [7]: ≥ 19.1 mg/mL; solubility [8]: ≥ 18 mg/mL; solubility [9]: ≥ 1.42 mg/mL; solubility [10]: ≥ 1.97 mg/mL; solubility [11]: ≥ 1.99 mg/mL; solubility [14]: ≥ 6.43 mg/mL; solubility [12]: ≥ 16.8 mg/mL |
| KEMGETLLRAVESYLLAHS [BIR09R] |  |  |  |  |  |  |  |  |  |  |  |  |  |  |  |  |  |  |  |  | Comments (solubility on preparation) [13]: Completely dissolved; Solubility [mg per ml 'as is'] [13]: 4.92 mg per ml ‘as is’; Solubility [μmol per ml] [13]: 1.993 μmol per ml; Solubility after 24 Hours [13]: Completely dissolved; solubility [14]: ≥ 4.28 mg/mL |
